Experimental data taken from ChEMBL document CHEMBL4825742, “Novel Histone Deacetylase 6 Inhibitors for Treating Alzheimer's Disease and Cancer” (ACS Med Chem Lett, 2021).

Target: T1, Protein deacetylase HDAC6 (Homo sapiens, UniProt Q9UBN7)
T1 sequence (Q9UBN7 whole entry): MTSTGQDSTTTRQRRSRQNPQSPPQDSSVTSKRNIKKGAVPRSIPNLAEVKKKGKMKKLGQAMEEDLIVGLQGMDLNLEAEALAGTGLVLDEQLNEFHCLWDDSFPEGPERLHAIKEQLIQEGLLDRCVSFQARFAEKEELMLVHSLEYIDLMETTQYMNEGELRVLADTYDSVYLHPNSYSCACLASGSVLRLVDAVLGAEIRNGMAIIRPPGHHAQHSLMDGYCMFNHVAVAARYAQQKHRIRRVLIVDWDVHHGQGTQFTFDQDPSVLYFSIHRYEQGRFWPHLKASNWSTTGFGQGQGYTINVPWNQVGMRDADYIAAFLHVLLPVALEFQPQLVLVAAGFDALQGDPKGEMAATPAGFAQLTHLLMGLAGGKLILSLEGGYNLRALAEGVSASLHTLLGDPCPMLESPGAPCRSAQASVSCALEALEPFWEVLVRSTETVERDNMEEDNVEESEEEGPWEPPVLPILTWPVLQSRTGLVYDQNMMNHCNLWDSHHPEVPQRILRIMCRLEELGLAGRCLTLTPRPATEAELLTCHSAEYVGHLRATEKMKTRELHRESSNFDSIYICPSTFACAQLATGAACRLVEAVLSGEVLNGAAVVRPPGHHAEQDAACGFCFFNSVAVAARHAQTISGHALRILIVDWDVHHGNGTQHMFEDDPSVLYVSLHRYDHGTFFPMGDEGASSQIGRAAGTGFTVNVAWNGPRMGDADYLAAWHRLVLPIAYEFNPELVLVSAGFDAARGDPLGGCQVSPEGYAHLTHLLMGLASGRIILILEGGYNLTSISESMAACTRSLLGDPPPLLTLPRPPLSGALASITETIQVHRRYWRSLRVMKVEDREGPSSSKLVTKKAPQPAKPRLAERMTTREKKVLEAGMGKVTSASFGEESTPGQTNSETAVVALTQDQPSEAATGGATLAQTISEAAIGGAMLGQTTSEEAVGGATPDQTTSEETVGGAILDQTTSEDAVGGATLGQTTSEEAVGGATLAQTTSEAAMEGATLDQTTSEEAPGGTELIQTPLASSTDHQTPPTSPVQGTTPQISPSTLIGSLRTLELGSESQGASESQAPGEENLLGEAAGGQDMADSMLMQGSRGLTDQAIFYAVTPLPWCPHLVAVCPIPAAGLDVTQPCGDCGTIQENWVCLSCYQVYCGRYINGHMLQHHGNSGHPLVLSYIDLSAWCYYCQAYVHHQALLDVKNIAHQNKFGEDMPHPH
Assay: Inhibition of human full length HDAC6 expressed in baculovirus expression system using FAM-RHKK(Ac)-NH2 as substrate incubated for 5 hrs by […] endpoint assay

SMILES: O=C(NO)c1cc(F)c2c(c1)CCN(C1CCC1)C2
- IC50: 1 nM

SMILES: CN1Cc2cc(C(=O)NO)ccc2CN1Cc1ccccc1
- IC50: 1 nM

SMILES: CN1CC2(CCCCC2)CC[C@H]1Cc1cc(F)cc(C(=O)NO)c1
- IC50: 1 nM

SMILES: O=C(NO)c1cc(F)c2c(c1)CCn1cccc1-2
- IC50: 1 nM

SMILES: O=C(NO)c1ccc(CN2CC3(CCOC3)C2)c(F)c1
- IC50: 1 nM

SMILES: Cn1c2c(c3ccccc31)CCN(Cc1ccc(C(=O)NO)cc1F)C2
- IC50: 1 nM
